This is an account of results in patent publication US5079246A, “Novel indoloquinlones” (Beacham Group p. l. c., priority 1988, dated 1992).

The target in assay [1] is site on or near the Cl^- channel portion of the GABAA /BDZ/Cl^- channel complex. As to the kind of experiment: [^35 S]-TBPS binding to rat cerebral cortex membranes in vitro. The note with it: 2 nM [^35 S]-TBPS, pH 7.1, 25° C. How it is done: [^35 S]-TBPS binding to rat cerebral cortex membranes in vitro
[^35 S]-TBPS labels a site on or near the Cl^- channel portion of the GABAA /BDZ/Cl^- channel complex. Literature studies have shown that [^35 S]-TBPS binding is directly related to the permeability of the Cl^- channel (e.g. Concas et al, 1988).
Modulation of [^35 S]-TBPS binding is measured by a method similar to that of Gee et al (1986).
Pooled rat cerebral cortices were homogenised in 20 volumes of 0.32M sucrose and centrifuged at 1000 g for 20 minutes (4° C.). The supernatant was removed and recentrifuged at 50,000 g (4° C., 20 mins). The P2 pellet was then suspended in 20 volumes of Tris citrate buffer (pH 7.1) and centrifuged at 50,000 g (4° C., 20 mins). This washing step was repeated three times and the pellet finally resuspended in 20 volumes of buffer and stored at -70° C. prior to use.
[…] Non-specific binding was measured in the presence of 10^-4 M picrotoxin. Varying concentrations of test drugs 10^-7, 10^-6, 10^-5 and 10^-4 M final concentration)were added in a volume of 50 μl. The total assay volume was 500 μl. Incubation was stopped by rapid filtration using a Skatron cell harvester and radioactivity measured by liquid scintillation spectrometry. IC50 's were calculated as the concentration of test drug to inhibit 50% of specific binding. Concas A. et al, (1988) J. Neurochem. 51(6), 1868-1876. Gee K. W. et al, (1986) Mol. Pharmacol. 30, 218-225.

Assay [2] can be described thus: Geller-Seifter procedure (anxiolytic conflict test in rats). The assay is classed as in vivo. The settings on record: Rattus norvegicus, po, 1 h, 60 min before testing, read-out: increase in responding in the `conflict` session (percentage increase in square root of total lever presses in FR5); for change in vivo at 20 mg/kg: 20 mg/kg p.o. How it is done: Potential anxiolytic properties have been evaluated using the Geller-Seifter procedure based on that originally described by Geller and Seifter (1960) Psychopharmacologia, 1, 482-492.
Rats are trained on a variable interval 30 sec schedule (VI30) to press a lever in order to obtain food reward. The 3 min sessions of the VI30 schedule alternate with 3 min of a schedule (FR5) in which every 5th lever press is followed by a presentation of a food pellet paired with a 0.2 sec mild footshock. The amplitude of the shock is adjusted for each rat to give equivalent response rates. The total study consists of VI and FR components and lasts 30 mins. Rats typically respond with high rates of lever pressing under the VI30 schedule and low response rats under the FR5 `conflict` session. Anxiolytic drugs increase the suppressed response rates of rats in `conflict` sessions.
The compound is administered intraperitoneally or orally to groups of 6-16 rats 30 min (intraperitoneal route) or 60 min (oral route) before testing.
The results are expressed as the percentage increase in square root of the total number of lever presses in the FR5 `conflict` sessions. Square root transformation is necessary to normalise the data for statistical analysis using parametric methods. A change in the square root of the VI can indicate non-specific drug effects i.e. stimulation or sedation.

With `Cn1c2ccccc2c2c(N)c3c(nc21)CC(C)(C)CC3=O` [Example E8, 11-Amino-1,2,3,4-tetrahydro-3,3,6-trimethyl-6H-quinindolin-1-one], the IC50 in assay [1] (done in the absence of GABA) worked out at 4.4 µM.

Take `CCCn1c2ccccc2c2c(N)c3c(nc21)CCCC3=O` [Example E6, 11-Amino-6-n-propyl-1,2,3,4-tetrahydro-6H-quinindolin-1-one]: in assay [1] (done in the absence of GABA), the IC50 was 3.8 µM. The change in vivo at 20 mg/kg in assay [2] amounted to 17%.

As for `Nc1c2c(nc3[nH]c4ccccc4c13)CCCC2=O` [Example E1, 11-Amino-1,2,3,4-tetrahydro-6H-quinindolin-1-one], the change in vivo at 20 mg/kg in assay [2] is 16%.

For the molecule `Cn1c2ccccc2c2c(N)c3c(nc21)CCC(C)(C)C3=O` [Example E13, 11-Amino-1,2,3,4-tetrahydro-2,2,6-trimethyl-6H-quinindolin-1-one], the IC50 in assay [1] (done in the presence of GABA) was 1.7 µM. Moreover, the change in vivo at 20 mg/kg in assay [2] worked out at 21%.

With `Cn1c2ccccc2c2c(N)c3c(nc21)CCC3=O` [Example E17, 10-Amino-5-methyl-cyclopenta[5,6]pyrido[2,3-b]indol-1-one], the change in vivo at 100 mg/kg in assay [2] (100 mg/kg p.o.) was 37%.

In the case of `CCC1CCc2nc3c(c(N)c2C1=O)c1ccccc1n3C` (racemic) [Example E12, (±) 11-Amino-2-ethyl-6-methyl-1,2,3,4-tetrahydro-6H-quinindolin-1-one], the IC50 in assay [1] (done in the presence of GABA) was found to be 1.4 µM. For the same molecule, the change in vivo at 20 mg/kg in assay [2] is 33%.

Take `C#CCC1CCc2nc3c(c(N)c2C1=O)c1ccccc1n3C` (racemic) [Example E14, (±) 11-Amino-6-methyl-2-(2-propynyl)-1,2,3,4-tetrahydro-6H-quinindolin-1-one]: the IC50 in assay [1] (done in the presence of GABA) was 1 µM.

For the molecule `CC1CC(=O)c2c(nc3c(c2N)c2ccccc2n3C)C1` (racemic) [Example E10, (±) 11-Amino-3,6-dimethyl-1,2,3,4-tetrahydro-6H-quinindolin-1-one], in assay [2], the change in vivo at 20 mg/kg is 17%.

For the molecule `CC1CCc2nc3c(c(N)c2C1=O)c1ccccc1n3C` (racemic) [Example E11, (±) 11-Amino-2,6-dimethyl-1,2,3,4-tetrahydro-6H-quinindolin-1-one], the IC50 in assay [1] (done in the presence of GABA) amounted to 1.2 µM. Moreover, the change in vivo at 20 mg/kg in assay [2] was 52%.

Turning to `Cn1c2ccccc2c2c(N)c3c(nc21)CCCC3=O` [Example E4, 11-Amino-6-methyl-1,2,3,4-tetrahydro-6H-quinindolin-1-one], in assay [2], the change in vivo at 20 mg/kg was 29%.

In assay [1] (done in the absence of GABA), `CCn1c2ccccc2c2c(N)c3c(nc21)CCCC3=O` [Example E5, 11-Amino-6-ethyl-1,2,3,4-tetrahydro-6H-quinindolin-1-one] displayed an IC50 of 7.5 µM. Further, the change in vivo at 20 mg/kg in assay [2] is 29%.

With `Cn1c2ccccc2c2c(N)c3c(nc21)CCCCC3=O` [Example E16, 12-Amino-7-methyl-cyclohepta[5,6]pyrido[2,3-b]indol-1-one], in assay [1] (done in the presence of GABA), the IC50 stood at 3.3 µM. In addition, the change in vivo at 20 mg/kg in assay [2] is 11%.

With `CC1CC(C)c2nc3c(c(N)c2C1=O)c1ccccc1n3C` (racemic) [Example E15, (±) 11-Amino-1,2,3,4-tetrahydro-2,4,6-trimethyl-6H-quinindolin-1-one], the IC50 in assay [1] (done in the presence of GABA) amounted to 3.8 µM.

In the case of `C=CCn1c2ccccc2c2c(N)c3c(nc21)CCCC3=O` [Example E7, 11-Amino-6-(2-propenyl)-1,2,3,4-tetrahydro-6H-quinindolin-1-one], the 50% inhibitory concentration (IC50) in assay [1] (done in the presence of GABA) was 1.9 µM. Moreover, in assay [2], the change in vivo at 20 mg/kg was 16%.
